{"source": "ChEMBL document CHEMBL5137032", "about": "“Design, synthesis of DNA-interactive 4-thiazolidinone-based indolo-/pyrroloazepinone conjugates as potential cytotoxic and topoisomerase I inhibitors” (Eur J Med Chem, 2022)", "key": {"[1]": {"test_system": "MCF7", "experiment": "Cytotoxicity against human MCF7 cells assessed as cell growth inhibition incubated for 48 hrs by MTT assay", "format": "functional, cell-based", "settings": "MCF7, 48 h"}, "[2]": {"test_system": "SK-MEL-28", "experiment": "Induction of apoptosis in human SK-MEL-28 cells assessed as reduction on viable cells at 2.08 to 8.32 uM incubated for 48 hrs by phase contrast microscopy", "format": "functional, cell-based", "settings": "dose 2.08-8.32 µM, DDE = dose-dependent effect"}, "[3]": {"test_system": "SK-MEL-28", "experiment": "Induction of apoptosis in human SK-MEL-28 cells assessed as nuclear fragmentation at 2.08 to 8.32 uM incubated for 48 hrs by DAPI staining based fluorescence microscopic analysis", "format": "functional, cell-based", "settings": "dose 2.08-8.32 µM"}, "[4]": {"test_system": "SK-MEL-28", "experiment": "Induction of apoptosis in human SK-MEL-28 cells assessed as cell membrane disruption at 2.08 to 8.32 uM incubated for 48 hrs by phase contrast microscopy", "format": "functional, cell-based", "settings": "dose 2.08-8.32 µM, DDE = dose-dependent effect"}, "[5]": {"test_system": "SK-MEL-28", "experiment": "Anti-migration activity in human SK-MEL-28 cells assessed as distance travelled at 8.32 uM incubated for 48 hrs by wound healing assay based phase contrast microscopy", "format": "functional"}, "[6]": {"experiment": "Cytotoxicity against rat NRK cells assessed as cell growth inhibition incubated for 48 hrs by MTT assay", "format": "toxicity, cell-based"}, "[7]": {"molecular_target": "T1, DNA topoisomerase 1 (Homo sapiens) (UniProt P11387)", "T1 sequence (whole entry)": "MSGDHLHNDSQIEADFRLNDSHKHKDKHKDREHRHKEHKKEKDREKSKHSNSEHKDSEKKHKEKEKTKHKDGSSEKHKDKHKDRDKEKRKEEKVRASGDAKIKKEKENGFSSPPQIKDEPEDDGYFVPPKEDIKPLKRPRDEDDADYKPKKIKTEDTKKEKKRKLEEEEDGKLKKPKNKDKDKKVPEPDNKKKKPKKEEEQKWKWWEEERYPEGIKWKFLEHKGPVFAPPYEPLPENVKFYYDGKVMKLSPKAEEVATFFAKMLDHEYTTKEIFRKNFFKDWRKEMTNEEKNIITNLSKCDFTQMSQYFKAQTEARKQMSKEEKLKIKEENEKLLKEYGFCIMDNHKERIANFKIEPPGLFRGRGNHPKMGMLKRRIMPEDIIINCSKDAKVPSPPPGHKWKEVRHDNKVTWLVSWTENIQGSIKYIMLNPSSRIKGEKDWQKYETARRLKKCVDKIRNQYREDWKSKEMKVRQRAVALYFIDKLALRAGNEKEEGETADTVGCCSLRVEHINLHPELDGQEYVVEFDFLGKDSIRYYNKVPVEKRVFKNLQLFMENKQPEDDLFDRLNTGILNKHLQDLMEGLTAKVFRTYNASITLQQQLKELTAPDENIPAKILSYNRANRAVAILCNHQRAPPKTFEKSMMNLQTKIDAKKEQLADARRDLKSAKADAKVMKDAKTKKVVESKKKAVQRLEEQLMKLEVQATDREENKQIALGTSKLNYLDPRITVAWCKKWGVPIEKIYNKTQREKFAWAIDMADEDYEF", "experiment": "Inhibition of DNA topoisomerase 1 (unknown origin) assessed as reduction in pBR322 DNA relaxation at 10 uM incubated for 30 mins measured by agarose gel electrophoresis method relative to control"}, "[8]": {"test_system": "SK-MEL-28", "experiment": "Anti-migration activity in human SK-MEL-28 cells assessed as distance travelled at 4.16 uM by wound healing assay based phase contrast microscopy", "format": "functional"}, "[9]": {"test_system": "SK-MEL-28", "experiment": "Anti-migration activity in human SK-MEL-28 cells assessed as distance travelled at 2.08 uM by wound healing assay based phase contrast microscopy", "format": "functional"}, "[10]": {"test_system": "SK-MEL-28", "experiment": "Induction of apoptosis in human SK-MEL-28 cells assessed as changes in nuclear morphology at 2.08 to 8.32 uM incubated for 48 hrs by DAPI staining based fluorescence microscopic analysis", "format": "functional, cell-based", "settings": "dose 2.08-8.32 µM"}, "[11]": {"test_system": "SK-MEL-28", "experiment": "Inhibition of cell migration in human SK-MEL-28 cells at 2.08 to 8.32 uM incubated for 48 hrs by wound healing assay based phase contrast microscopy", "format": "functional", "settings": "dose 2.08-8.32 µM, DDE = dose-dependent effect"}, "[12]": {"molecular_target": "DNA topoisomerase 2-alpha (Homo sapiens) (UniProt P11388)", "sequence (P11388 whole entry)": "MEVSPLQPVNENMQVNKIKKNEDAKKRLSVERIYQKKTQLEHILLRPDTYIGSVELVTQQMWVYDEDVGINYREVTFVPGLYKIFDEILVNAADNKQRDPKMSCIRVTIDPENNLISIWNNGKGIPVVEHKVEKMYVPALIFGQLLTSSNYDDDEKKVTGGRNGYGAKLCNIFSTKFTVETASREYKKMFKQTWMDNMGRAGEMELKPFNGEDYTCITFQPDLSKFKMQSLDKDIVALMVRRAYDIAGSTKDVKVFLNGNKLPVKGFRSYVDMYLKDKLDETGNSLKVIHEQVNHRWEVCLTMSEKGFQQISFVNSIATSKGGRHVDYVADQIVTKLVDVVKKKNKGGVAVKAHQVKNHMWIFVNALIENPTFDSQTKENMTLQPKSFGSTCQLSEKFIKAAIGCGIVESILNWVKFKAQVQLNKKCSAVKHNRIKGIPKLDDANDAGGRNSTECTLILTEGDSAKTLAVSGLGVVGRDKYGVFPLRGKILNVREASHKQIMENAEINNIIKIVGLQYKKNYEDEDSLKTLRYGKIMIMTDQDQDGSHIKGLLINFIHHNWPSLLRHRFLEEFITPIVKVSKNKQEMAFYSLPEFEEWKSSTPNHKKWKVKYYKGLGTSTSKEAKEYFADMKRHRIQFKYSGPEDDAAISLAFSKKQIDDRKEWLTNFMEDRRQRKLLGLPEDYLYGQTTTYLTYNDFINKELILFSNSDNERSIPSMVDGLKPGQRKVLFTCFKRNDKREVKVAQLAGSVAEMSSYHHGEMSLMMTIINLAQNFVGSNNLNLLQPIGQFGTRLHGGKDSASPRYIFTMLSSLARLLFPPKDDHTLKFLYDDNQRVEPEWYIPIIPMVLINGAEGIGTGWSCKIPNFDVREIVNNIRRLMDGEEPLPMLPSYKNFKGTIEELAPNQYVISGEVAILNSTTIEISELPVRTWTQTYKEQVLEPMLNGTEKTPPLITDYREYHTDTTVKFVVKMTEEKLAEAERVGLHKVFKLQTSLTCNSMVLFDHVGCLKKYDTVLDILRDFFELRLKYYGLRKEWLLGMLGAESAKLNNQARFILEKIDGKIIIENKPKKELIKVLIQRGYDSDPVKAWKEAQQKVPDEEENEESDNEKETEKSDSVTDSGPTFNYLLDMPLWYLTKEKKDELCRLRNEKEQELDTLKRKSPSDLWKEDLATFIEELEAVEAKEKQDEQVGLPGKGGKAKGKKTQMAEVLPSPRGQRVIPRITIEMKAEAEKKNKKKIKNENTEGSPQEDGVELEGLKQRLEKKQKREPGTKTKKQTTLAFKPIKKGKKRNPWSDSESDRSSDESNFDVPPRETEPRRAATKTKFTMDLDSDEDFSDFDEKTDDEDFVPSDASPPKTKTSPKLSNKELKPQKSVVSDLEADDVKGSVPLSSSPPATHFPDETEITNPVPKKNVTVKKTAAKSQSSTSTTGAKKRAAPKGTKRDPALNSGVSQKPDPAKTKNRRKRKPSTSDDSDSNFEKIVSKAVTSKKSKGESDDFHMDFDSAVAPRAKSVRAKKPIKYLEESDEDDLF", "experiment": "Inhibition of DNA topoisomerase 2 (unknown origin) assessed as reduction in decatenation using kDNA as substrate incubated for 30 mins measured by agarose gel electrophoresis method"}, "[13]": {"test_system": "SK-MEL-28", "experiment": "Induction of apoptosis in human SK-MEL-28 cells assessed as necrotic cells at 2.08 to 8.32 uM incubated for 48 hrs by Annexin V-FITC/propidium iodide staining based flow cytometric analysis", "format": "functional", "settings": "dose 2.08-8.32 µM"}, "[14]": {"test_system": "SK-MEL-28", "experiment": "Induction of apoptosis in human SK-MEL-28 cells assessed as apoptotic body fragmentation at 2.08 to 8.32 uM incubated for 48 hrs by AO/EB staining based fluorescence microscopy", "format": "functional, cell-based", "settings": "dose 2.08-8.32 µM, DDE = dose-dependent effect"}, "[15]": {"test_system": "SK-MEL-28", "experiment": "Induction of apoptosis in human SK-MEL-28 cells assessed as chromatin condensation at 2.08 to 8.32 uM incubated for 48 hrs by AO/EB staining based fluorescence microscopy", "format": "functional, cell-based", "settings": "dose 2.08-8.32 µM, DDE = dose-dependent effect"}, "[16]": {"test_system": "HT-29", "experiment": "Cytotoxicity against human HT-29 cells assessed as cell growth inhibition incubated for 48 hrs by MTT assay", "format": "functional, cell-based", "settings": "HT-29, 48 h"}, "[17]": {"test_system": "SK-MEL-28", "experiment": "Induction of apoptosis in human SK-MEL-28 cells assessed as late apoptotic cells measured upto 4.16 uM incubated for 48 hrs by Annexin V-FITC/propidium iodide staining based flow cytometric analysis", "format": "functional, cell-based"}, "[18]": {"test_system": "Calf thymus DNA", "experiment": "Binding affinity to calf thymus DNA assessed as hyperchromicity at 10 to 20 uM by UV-Vis spectroscopic analysis", "format": "nucleic-acid assay", "settings": "Bos taurus; dose 10-20 µM"}, "[19]": {"test_system": "Calf thymus DNA", "experiment": "Binding affinity to calf thymus DNA assessed as decrease in viscosity at 15 uM by ethidium bromide-Hoechst 33342 staining based analysis", "format": "nucleic-acid assay", "settings": "Bos taurus"}, "[20]": {"test_system": "SK-MEL-28", "experiment": "Anti-migration activity in human SK-MEL-28 cells assessed as distance travelled at 2.08 uM incubated for 48 hrs by wound healing assay based phase contrast microscopy", "format": "functional"}, "[21]": {"test_system": "SK-MEL-28", "experiment": "Induction of intracellular ROS generation in human SK-MEL-28 cells at 2.08 to 8.32 uM incubated for 48 hrs by […] fluorescence microscopic analysis", "format": "functional, cell-based", "settings": "dose 2.08-8.32 µM, DDE = dose-dependent effect"}, "[22]": {"molecular_target": "T2, DNA topoisomerase 1 (Homo sapiens, UniProt P11387)", "T2 sequence (P11387 whole entry)": "T1 sequence (whole entry)", "experiment": "Inhibition of human DNA topoisomerase 1 assessed as reduction in pBR322 DNA relaxation incubated for 1 hrs measured by agarose gel electrophoresis method"}, "[23]": {"test_system": "HCT-116", "experiment": "Cytotoxicity against human HCT-116 cells assessed as cell growth inhibition incubated for 48 hrs by MTT assay", "format": "functional, cell-based", "settings": "HCT-116, 48 h"}, "[24]": {"test_system": "Calf thymus DNA", "experiment": "Binding affinity to calf thymus DNA assessed as hyperchromicity at 10 uM by circular dichroism spectroscopy", "format": "nucleic-acid assay", "settings": "Bos taurus"}, "[25]": {"test_system": "SK-MEL-28", "experiment": "Induction of apoptosis in human SK-MEL-28 cells assessed as cell shrinkage at 2.08 to 8.32 uM incubated for 48 hrs by phase contrast microscopy", "format": "functional, cell-based", "settings": "dose 2.08-8.32 µM, DDE = dose-dependent effect"}, "[26]": {"test_system": "SK-MEL-28", "experiment": "Induction of apoptosis in human SK-MEL-28 cells assessed as changes in cell morphology at 2.08 to 8.32 uM incubated for 48 hrs by phase contrast microscopy", "format": "functional, cell-based", "settings": "dose 2.08-8.32 µM"}, "[27]": {"test_system": "SK-MEL-28", "experiment": "Induction of apoptosis in human SK-MEL-28 cells assessed as membrane blebbing at 2.08 to 8.32 uM incubated for 48 hrs by AO/EB staining based fluorescence microscopy", "format": "functional, cell-based", "settings": "dose 2.08-8.32 µM, DDE = dose-dependent effect"}, "[28]": {"test_system": "A549", "experiment": "Cytotoxicity against human A549 cells assessed as cell growth inhibition incubated for 48 hrs by MTT assay", "format": "functional, cell-based", "settings": "A549, 48 h"}, "[29]": {"test_system": "SK-MEL-28", "experiment": "Anti-migration activity in human SK-MEL-28 cells assessed as distance travelled at 4.16 uM incubated for 48 hrs by wound healing assay based phase contrast microscopy", "format": "functional"}, "[30]": {"test_system": "SK-MEL-28", "experiment": "Anti-migration activity in human SK-MEL-28 cells assessed as distance travelled at 8.32 uM by wound healing assay based phase contrast microscopy", "format": "functional"}, "[31]": {"test_system": "SK-MEL-28", "experiment": "Induction of apoptosis in human SK-MEL-28 cells assessed as chromatin condensation at 2.08 to 8.32 uM incubated for 48 hrs by DAPI staining based fluorescence microscopic analysis", "format": "functional, cell-based", "settings": "dose 2.08-8.32 µM"}, "[32]": {"test_system": "SK-MEL-28", "experiment": "Inhibition of colony formation in human SK-MEL-28 cells assessed as decrease in colonies at 2.08 to 8.32 uM incubated for 7 days by crystal violet staining based assay", "format": "functional, cell-based", "settings": "dose 2.08-8.32 µM, time 7.0 day, DDE = dose-dependent effect"}, "[33]": {"test_system": "SK-MEL-28", "experiment": "Cytotoxicity against human SK-MEL-28 cells assessed as cell growth inhibition incubated for 48 hrs by MTT assay", "format": "functional, cell-based", "settings": "SK-MEL-28, 48 h"}, "[34]": {"test_system": "SK-MEL-28", "experiment": "Induction of apoptosis in human SK-MEL-28 cells assessed as cell shrinkage at 2.08 to 8.32 uM incubated for 48 hrs by AO/EB staining based fluorescence microscopy", "format": "functional", "settings": "dose 2.08-8.32 µM, DDE = dose-dependent effect"}}, "note": "Activity calls are given as the source filed them. The calls are words filed in the database; no cut-off is given here.", "data": [{"compound": "Cc1ccc(C/N=C2\\NC(=O)/C(=C3\\CCNC(=O)c4[nH]ccc43)S2)cc1", "values": [{"measurement": "IC50", "setting": "[1]", "result": 8.15, "unit": "µM"}, {"measurement": "Activity", "setting": "[2]", "result": "Dde"}, {"measurement": "Activity", "setting": "[3]", "result": "Active"}, {"measurement": "Activity", "setting": "[4]", "result": "Dde"}, {"measurement": "Activity", "setting": "[5]", "result": 573.08, "unit": "um"}, {"measurement": "IC50 at 48 h", "setting": "[6]", "result": 41.9, "unit": "µM"}, {"measurement": "inhibition", "setting": "[7]", "result": 17, "unit": "%"}, {"measurement": "Activity", "setting": "[8]", "result": 736.33, "unit": "um"}, {"measurement": "Activity", "setting": "[9]", "result": 670, "unit": "um"}, {"measurement": "Activity", "setting": "[10]", "result": "Active"}, {"measurement": "inhibition", "setting": "[11]", "result": "Dde"}, {"measurement": "inhibition", "setting": "[12]", "result": "Active"}, {"measurement": "Activity", "setting": "[13]", "result": 4.84, "unit": "%"}, {"measurement": "Activity", "setting": "[14]", "result": "Dde"}, {"measurement": "Activity", "setting": "[15]", "result": "Dde"}, {"measurement": "IC50", "setting": "[16]", "result": 6.83, "unit": "µM"}, {"measurement": "Activity", "setting": "[17]", "result": "Active"}, {"measurement": "Activity", "setting": "[18]", "result": "Active"}, {"measurement": "Activity", "setting": "[19]", "result": "Active"}, {"measurement": "Activity", "setting": "[20]", "result": 434.44, "unit": "um"}, {"measurement": "Activity", "setting": "[21]", "result": "Dde"}, {"measurement": "IC50", "setting": "[22]", "result": 34, "unit": "µM"}, {"measurement": "IC50", "setting": "[23]", "result": 4.76, "unit": "µM"}, {"measurement": "Activity", "setting": "[24]", "result": "Active"}, {"measurement": "Activity", "setting": "[25]", "result": "Dde"}, {"measurement": "Activity", "setting": "[26]", "result": "Active"}, {"measurement": "Activity", "setting": "[27]", "result": "Dde"}, {"measurement": "IC50", "setting": "[28]", "result": 9.08, "unit": "µM"}, {"measurement": "Activity", "setting": "[29]", "result": 568.42, "unit": "um"}, {"measurement": "Activity", "setting": "[30]", "result": 798.09, "unit": "um"}, {"measurement": "Activity", "setting": "[31]", "result": "Active"}, {"measurement": "inhibition", "setting": "[32]", "result": "Dde"}, {"measurement": "IC50", "setting": "[33]", "result": 4.15, "unit": "µM"}, {"measurement": "Activity", "setting": "[34]", "result": "Dde"}]}]}
